{"source": "patent US20170038387A1", "about": "“METHODS FOR TREATING CHRONIC LYMPHOCYTIC LEUKEMIA AND THE USE OF BIOMARKERS AS A PREDICTOR OF CLINICAL SENSITIVITY TO IMMUNOMODULATORY THERAPIES” (Celgene Corporation, priority 2015, published 2017)", "key": {"primary CLL samples": {"system": "primary CLL samples", "assay": "TMT-tagging and mass-spectrometry profiling of relative protein abundance after compound exposure", "format": "cell-based, human", "from_the_text": "Data import: Relative abundance (RA) data was imported into the R statistical programming environment v.3.1.2. Proteins with less than one spectral count in any of the three MS runs for each case scenario were filtered out and relative abundance was scale normalized to the same median by using normalizeBetweenArrays( ) function implemented in the limma package for Bioconductor (see Yang et al., Nucleic Acids Research, 30(4), e15 (2002)).\nComparative analysis: RA scores were log 2-transformed to perform direct comparison of compounds exposure versus DMSO control and a paired moderated t-test (see Smyth, Statistical Applications in Genetics and Molecular Biology, 3(1), article 3 (2004)) was performed by using lmfit( ) and eBayes( ) functions form limma package to test differential relative abundance between experimental conditions. For differential analysis across cases, the log-2 fold changes of replicates for two of the case scenarios were considered.\nLinear regression analysis: Linear regression was modeled by using lm( ) function from the stats package. This function provided the correlation coefficients as well as the linear fitted model. Data were assessed for outliers detection within the linear model via the Studentized residuals method (implemented in outlierTest( ) function from car package) and deemed significant if their q-values were under a threshold of 0.05 (5%).\nThe proteins subjected to the analysis were those with more than one spectral count matched in three MS runs representing each case scenario. A total of 6114, 6070, 5982 and 5382 proteins were retained for each case scenario. Differential expression analysis was applied to the high and consistent coverage of 4594 proteins quantified across all case scenarios. FIGS. 2A-2D show distribution of normalized relative abundances for each replicate of the four case scenarios (Cases B1-B4). The standard deviation of each replicate is represented as a stair-plot line at the bottom of the boxplot. FIGS. 3A-3D show heatmaps representing correlations of log 2 fold-changes of protein levels post compound treatment as compared with DMSO across conditions for all case scenarios. Low correlation of log 2 fold-changes at 6 hours may be due to the alteration of a small subset of proteins at an early time point without strong general effects across the proteome. Stronger correlations at 24 hours can be linked to a higher proportion of proteins perturbed reflecting downstream changes upon compound exposure."}, "[1]": {"system": "samples from CLL patients", "assay": "in vitro proliferation assays on samples from four groups of CLL patients", "format": "cell-based, human", "from_the_text": "The samples used in this study were from four groups of CLL patients."}, "CLL cell lines": {"system": "CLL cell lines", "assay": "Thymidine incorporation assay (cell proliferation)", "format": "cell-based", "description": "After four days, cells were diluted 1:7 with fresh media, containing the same concentration of treatment compound. Three days later, ^3H-thymidine was added to label proliferating cells for 6-7 hours. Cells were then harvested onto filter plates for counting on a scintillation counter."}, "[2]": {"details": "FIG. 5 heatmap, 10 μM, 24 hours, vs DMSO"}}}
{"smiles": "Nc1cccc2c1CN(C1CCC(=O)NC1=O)C2=O", "note": "(centres unmarked) [lenalidomide, 1-oxo-2-(2,6-dioxopiperidin-3-yl)-4-aminoisoindoline, reference compound]", "values": [{"measurement": "protein abundance levels of SELL, SNX20 and KLF13 upon exposure", "setting": "primary CLL samples; 10 μM, 24 hours", "result": "not affected or slightly increased"}, {"measurement": "GZMB protein expression level upon exposure", "setting": "primary CLL samples; Case B1", "result": "increased"}, {"measurement": "level of WIZ (widely-interspaced zinc-finger) upon exposure", "setting": "primary CLL samples; Case B1", "result": "increased"}, {"measurement": "GZMB protein expression level upon exposure", "setting": "primary CLL samples; Case B4", "result": "decreased"}, {"measurement": "levels of Group 4 proteins (6 proteins including IKZF3 and a second IKZF1 isoform) upon exposure", "setting": "primary CLL samples; [2]", "result": "mild effects"}, {"measurement": "protein abundance levels of Group 3 proteins (SMNX20, SELL, KLF13, WIZ, IKZF1, NFKBIE, TCF7 and IRF8) upon exposure", "setting": "primary CLL samples; [2]", "result": "do not change or increase"}, {"measurement": "effect on cell proliferation", "setting": "[1]; samples from the fourth group of patients (Case B4)", "result": "neither Compound A nor lenalidomide had any effect on cell proliferation"}, {"measurement": "effect on cell proliferation", "setting": "[1]; samples from the third group of patients (Case B3)", "result": "no effect on cell proliferation"}, {"measurement": "responsiveness of cell lines to treatment", "setting": "CLL cell lines; Bucket #1 (EHEB and I83-E95)", "result": "responsive to both compounds"}, {"measurement": "responsiveness of cell lines to treatment", "setting": "CLL cell lines; Bucket #2 (Mec2, CII, and CI)", "result": "responsive to both compounds"}, {"measurement": "responsiveness of cell lines to treatment", "setting": "CLL cell lines; Bucket #4 (HG3)", "result": "not responsive to either Compound A or lenalidomide"}]}
